Source: patent publication US20160263108A1, “NRF2 INHIBITORS AND COMPOSITIONS FOR TREATING MYCOBACTERIAL INFECTIONS” (THE HAMNER INSTITUTES, priority 2013, published 2016)
Structures can show the parent of a compound that is named as a salt. Where two headings read alike, the source gives them in different places.

Key:
Nrf2-ARE activity = type: cell-based
[1] = system: Nrf2-ARE-dependent gene expression (Ho1); experiment: RT-qPCR of ARE-dependent gene in HepG2 cells; details: concentration-dependent, basal (FIG. 2B)
[2] = system: Nrf2-ARE-dependent gene expression (Gclc, Nqo1, Ho1); experiment: RT-qPCR of ARE-dependent genes in 3T3-L1 preadipocytes; details: 10 mM
[3] = system: Nrf2-ARE activity in HaCaT cells; type: cell-based, human
[4] = system: Nrf2-ARE activity in HepG2 cells; type: cell-based, human; details: for ARE-luciferase activity with Nrf2 activator: HepG2 cells treated with both drug and iAs3+ (FIG. 2A, FIG. 3); for inhibitory effect on ARE-luciferase activity: HepG2 cells, basal conditions (FIG. 2A, FIG. 3)
[5] = system: Nrf2-ARE activity in 3T3-L1 preadipocytes; type: cell-based, mouse
[6] = system: Nrf2-ARE-dependent gene expression (HO1, GCLM, SRX); details: THP-1 cells, concentration-dependent
[7] = iAs3+-treated or tBHQ-treated conditions

| SMILES | inhibitory effect on ARE-luciferase activity (Nrf2-ARE activity; basal conditions) | inhibitory effect on ARE-luciferase activity (Nrf2-ARE activity; [7]) | further results |
| --- | --- | --- | --- |
| CC[C@@H](CO)NCCN[C@@H](CC)CO [Ethambutol dihydrochloride] | concentration-dependent inhibitory effect |  |  |
| Nc1cnccn1 [Aminopyrazine] | concentration-dependent inhibitory effect | concentration-dependent inhibitory effect |  |
| C[C@@H]1CN(c2c(F)c(N)c3c(=O)c(C(=O)O)cn(C4CC4)c3c2F)C[C@H](C)N1 [Sparfloxacin] | concentration-dependent inhibitory effect |  |  |
| NNC(=O)c1ccncc1 [Isoniazid] |  |  | gene expression of Heme oxygenase (Ho1) [1]: suppresses; gene expression of glutamate-cysteine ligase catalytic subunit (Gclc) ([2]; basal (FIG. 1B)): suppresses; gene expression of NAD(P)H dehydrogenase [quinone] 1 (Ngo1) ([2]; basal (FIG. 1C)): suppresses; gene expression of Heme oxygenase (Ho1) ([2]; basal (FIG. 1D)): suppresses; Nrf2-ARE-inhibitory effect (ARE-luciferase) [3]: Nrf2-ARE-inhibitory effect of isoniazid was also observed; ARE-luciferase activity with Nrf2 activator [4]: substantial ARE-luciferase activity; inhibitory effect on ARE-luciferase activity [4]: concentration-dependent inhibitory effect; ARE-luciferase activity with Nrf2 activator ([5]; 3T3-L1 cells treated with both drug and iAs3+ (FIG. 1A)): substantial ARE-luciferase activity; inhibitory effect on ARE-luciferase activity ([5]; 3T3-L1 cells, basal conditions, 1 mM to 50 mM (FIG. 1A)): concentration-dependent inhibitory effect |
| Cc1ccc(C(=O)NN)cc1 [p-Toluic hydrazide] | concentration-dependent inhibitory effect | concentration-dependent inhibitory effect |  |
| NNC(=O)Cc1ccccc1 [Phenylacetic hydrazide] | concentration-dependent inhibitory effect | concentration-dependent inhibitory effect |  |
| NNc1ccccc1 [Phenylhydrazine] | concentration-dependent inhibitory effect | concentration-dependent inhibitory effect |  |
| NNC(=O)c1ccco1 [2-Furoic hydrazide] | concentration-dependent inhibitory effect | concentration-dependent inhibitory effect |  |
| NC(=O)c1cnccn1 [Pyrazinecarboxamide] | concentration-dependent inhibitory effect | concentration-dependent inhibitory effect |  |
| CCc1cc(C(N)=S)ccn1 [Ethionamide] |  |  | ARE-luciferase activity with Nrf2 activator [4]: substantial ARE-luciferase activity; inhibitory effect on ARE-luciferase activity [4]: concentration-dependent inhibitory effect; gene expression (mRNA) of Heme oxygenase (HO1) ([6]; basal (FIG. 4A)): suppresses; gene expression (mRNA) of GCLM ([6]; basal (FIG. 4B)): suppresses; gene expression (mRNA) of sulfiredoxin (SRX) ([6]; basal (FIG. 4C)): suppresses |
